Data as given in patent US4614746A, “5-fluorobenzonitrile derivatives for increasing the lean meat to fat ratio and/or enhancing the growth rate of warm-blooded animals” (American Cyanamid Company, priority 1985, dated 1986).

How the values were obtained:
[1] = biological target: T1, beta-1 adrenergic receptor (Meleagris gallopavo, UniProt P07700); assay: Beta-1 adrenergic activity, (H3) dihydroalprenolol radioligand binding to erythrocyte membranes; design: species or system turkey and rat; conditions: (H3) DHA, room temperature (23° C.), one hour; read-out: β1 K-50 (concentration required to displace 50% radioactive ligand from binding sites of beta adrenergic receptors)
T1 construct: Beta-1 adrenergic receptor membranes are isolated from turkey and rat erythrocytes; from tissue; host or cells: erythrocyte membranes from freshly drawn turkey blood (rat blood also given)
T1 sequence (P07700 whole entry): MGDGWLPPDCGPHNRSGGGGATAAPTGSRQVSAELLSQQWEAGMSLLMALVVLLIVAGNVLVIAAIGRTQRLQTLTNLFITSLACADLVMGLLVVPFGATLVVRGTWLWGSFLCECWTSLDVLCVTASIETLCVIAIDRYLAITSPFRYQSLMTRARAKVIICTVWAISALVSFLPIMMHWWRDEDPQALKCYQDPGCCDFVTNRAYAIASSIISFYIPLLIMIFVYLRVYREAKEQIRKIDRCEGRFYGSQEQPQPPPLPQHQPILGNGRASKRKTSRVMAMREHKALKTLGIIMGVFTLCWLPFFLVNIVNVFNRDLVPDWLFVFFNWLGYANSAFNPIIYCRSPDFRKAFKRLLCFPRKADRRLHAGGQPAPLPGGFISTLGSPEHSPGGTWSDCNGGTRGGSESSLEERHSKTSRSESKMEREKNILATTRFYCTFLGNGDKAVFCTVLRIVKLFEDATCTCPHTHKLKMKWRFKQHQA
Procedure: Beta-1 adrenergic activity of experimental compounds is identified by radioactive ligand-binding studies by using beta adrenergic receptor membranes and adrenergic antagonist (H3) dihydroalprenolol (DHA). Binding of (H3) DHA to membrane fractions is assayed by filtration on glass fiber filters. Specific binding is defined as total radioactivity bound minus nonspecific bound radioactivity, i.e., binding in the presence of 100 μM nonradioactive DHA. Results are expressed as the concentrations of the compound required to displace 50% radioactive ligand from binding of beta adrenergic receptors (K-50).
In these tests, beta adrenergic receptor membranes are incubated with radioactive dihydroalprenolol (H3 DHA) and experimental compounds. The bound radio-ligand is separated by filtration on glass fiber filters and counted by scintillation counter.
Radioactive ligand, H3 dihydroalprenolol (DHA) and aquasol are purchased from New England Nuclear Corporation, DMSO is supplied by J. T. Baker Company, and all other chemicals are obtained from Sigma Chemical Company.
Beta-1 adrenergic receptor membranes are isolated from turkey and rat erythrocytes respectively using the procedures of:
Freshly drawn heparinized whole blood from turkeys and rats is centrifuged for five minutes (4×500 g). The plasma is withdrawn; the remaining erythrocytes are suspended in 150 mM sodium chloride solutions and centrifuged. The cells are resuspended and centrifuged twice more. The cells are hemolyzed in 10 volume of cold distilled water containing 2 mM dithiothreitol, 100 μM phenylmethyl sulfonyl fluoride, 5 μg/mL leupeptin, 200 μg/mL bacitacin, 0.1% bovine serum albumin, and 10 units/mL aprotonin, and centrifuged at 3000×g for five minutes. The bottom gelatin layer is discarded. The top layer is suspended and centrifuged five times at 3000×g and resuspended in tris buffer (145 mM NaCl, 1 mM ethylene glycol-bis(β-aminoethyl ether) N,N,N,N, tetraacetic acid, 2 mM MgCl2, 10 mM tris, and 10% glycerol, pH 7.4). The resuspended membranes are further purified with differential centrifugation by using sucrose albumin cushion, and subsequently stored in small aliquots at -70° C. The protein concentration of receptor membranes is determined by the biuret method.
To duplicate incubation, tubes are added 200 μl suspended membranes (200 μg protein), 25 μl of compound in solution or buffer and 25 μl (H3) dihydroalprenolol (200,000 CPM). Tubes were incubated at room temperature (23° C.) for an hour and then filtered rapidly under vacuum through Whatman GF/B filters. The filters are rinsed three times with 5 mL of cold buffer (145 mM NaCl, 1 mM ethylenediaminetetraacetic acid, and 10 mM tris, pH 7.4) and subsequently counted by liquid scintillation counter in 10 mL of aquasol. Specific binding of H3 DHA is defined as the excess over blank containing 100 μM nonradioactive DHA. Six serial dilutions of each compound are tested.
Beta adrenergic activity is inversely related to K-50 (the concentrations of the compound required to displace 50% radioactive ligand from binding sites of beta adrenergic receptors, i.e., 50% binding) value.

[2] = system: CFI female mice; assay: Antilipogenic evaluation of test compounds - mouse study (Example 6, procedure of Example 4); format: in vivo; conditions: versus related analogues
Procedure: CFI female mice from Carworth Farms are received when they are six-weeks old. They are housed ten to a cage in air-conditioned rooms (22° C. to 25° C.) with automatically-controlled lights, 14 hours on and ten hours off. The basal diet used in these studies is Purina Laboratory Chow (see description below) which is supplied ad libitum.
Thirteen days after arrival, the mice are weighed in groups of ten and assigned at random to the different treatments. Each of the treatments is tested in three replicates, i.e., in three cages of ten mice each. There are ten cages of ten control mice each. Drugs are mixed in the diet at the dosage level indicated. Feed and water are offered ad libitum for a 12-day test period. Feed spilled is collected during the test period. At the end of the test period, the collected feed is weighed, and the mean feed consumption per cage of ten mice is determined for each treatment. The mice are weighed as a group of ten, and the weight gain determined. The mice are sacrificed by cervical dislocation. The right uterine fat pad of each mouse is removed. The fat pads for each cage of ten mice are weighed as a unit. Reduction in fat pad weights of animals is generally indicative of a reduction of total body fat of the treated animals.
Following the procedure of Example 4, the analogues of the compounds of the invention in the subject Application are evaluated as antilipogenic agents.

[3] = system: Hubbard X Hubbard Crossbred Chicks; assay: Evaluation as feed additive in poultry (growth rate, feed utilization, carcass yield), seven weeks; format: in vivo; conditions: for Gain: seven weeks; for FE (Feed efficiency): feed/gain ratio; for FE, Percent (±) Control: percent improvement
Source text: Evaluation of 3-[2-(tert-butylamino)-1-hydroxyethyl]-5-fluorobenzonitrile as an animal feed additive for (1) the enhancement of the growth rate of poultry, (2) improvement in feed utilization thereby, (3) increase in the deposition of muscle tissue or protein in said birds and (4) improvement in the carcass quality of treated birds
One-day old Hubbard X Hubbard Crossbred Chicks, randomly allotted to pens of ten chicks (five males and five females) each.
Eight pens of chicks are used for unmedicated controls, and six pens of chicks are used at each level of drug. The duration of the experiment is seven weeks.
The controls are offered an unmedicated diet of Broiler Ration No. 453 (composition given below) and water ad libitum. Medicated chicks are offered the same diet containing the test drug at the levels indicated above, and water ad libitum. The weight of the chicks is determined at the beginning and on completion of the experiments. Weight gains and the amount of feed consumed are also determined. In addition, ten males and ten females from each group are randomly selected and sacrificed by decapitation. These birds were bled, the feathers, feet, and viscera removed, and the resulting carcass weighed.
The thus-obtained data are averaged and summarized in Table IV below, wherein the percent improvement in weight gains and feed/gain ratios are given.

[4] = system: wether lambs; assay: Evaluation in wether lambs (growth, feed efficiency, muscle, fat, carcass), eight weeks; format: in vivo; conditions: for ADG (Average daily gain): eight weeks; for Subcutaneous Fat Depth Over Loin / Muscle Cross-Sectional Area: 12th rib; for Muscle Cross-Sectional Area: longissimus dorsi
Source text: Evaluation of 3-[2-(tert-butylamino)1-hydroxyethyl]-5-fluorobenzonitrile for growth enhancement, feed efficiency improvement, increased deposition of muscle tissue and/or protein and improvement in carcass composition
To determine the effect of feeding experimental compounds to ruminants, wether lambs are randomly allotted to pens in groups of five. Three replications per treatment are used. The lambs are weighed and permitted feed and water ad libitum. The feed is weighed daily, and uneaten feed from the previous day is collected and weighed. Test lambs receive the same diet as control animals, but with the addition of experimental compound at a concentration of from 5 ppm to 20 ppm. The tests are conducted for a period of eight weeks at the end of which the lambs are again weighed, and the feed consumed calculated. The lambs are then necropsied. Eight animals per treatment are dressed, and the average cross-sectional area of the longissimus dorsi and depth of subcutaneous fat measured at the 12th rib.

[5] = in words; cited from earlier work

CC(C)(C)NCC(O)c1cc(F)cc(C#N)c1 (stereo not shown) [drawing 23]
IC50 [1]: 16.6 µM

CC(C)(C)NCC(O)c1cc(F)cc(C#N)c1 (stereo not shown) [3-[2-(tert-Butylamino)-1-hydroxyethyl]-5-fluorobenzonitrile]
effectiveness as an antilipogenic agent [2]: markedly more effective as an antilipogenic agent than its related aanalogues | Carcass Yield ([3]; 0.25 ppm in diet): 69.46% of live weight | Carcass Yield, Percent (±) Control ([3]; 0.25 ppm in diet): +1.0% | Feed Consumed ([3]; 0.25 ppm in diet): 2.576 kg | Feed Consumed, Percent (±) Control ([3]; 0.25 ppm in diet): +0.4% | Gain, Percent (±) Control ([3]; 0.25 ppm in diet): +2.5% | Gain ([3]; 0.25 ppm in diet): 1.105 kg | FE (Feed efficiency) ([3]; 0.25 ppm in diet): 2.333 | FE, Percent (±) Control ([3]; 0.25 ppm in diet): +2.1% | Carcass Yield ([3]; 0.5 ppm in diet): 68.73% of live weight | Carcass Yield, Percent (±) Control ([3]; 0.5 ppm in diet): 0.0% | Feed Consumed ([3]; 0.5 ppm in diet): 2.571 kg | Feed Consumed, Percent (±) Control ([3]; 0.5 ppm in diet): +0.2% | Gain, Percent (±) Control ([3]; 0.5 ppm in diet): +5.0% | Gain ([3]; 0.5 ppm in diet): 1.132 kg | FE (Feed efficiency) ([3]; 0.5 ppm in diet): 2.274 | FE, Percent (±) Control ([3]; 0.5 ppm in diet): +4.6% | Carcass Yield ([3]; 1 ppm in diet): 69.66% of live weight | Carcass Yield, Percent (±) Control ([3]; 1 ppm in diet): +1.3% | Feed Consumed ([3]; 1 ppm in diet): 2.573 kg | Feed Consumed, Percent (±) Control ([3]; 1 ppm in diet): +0.2% | Gain, Percent (±) Control ([3]; 1 ppm in diet): +1.9% | Gain ([3]; 1 ppm in diet): 1.097 kg | FE (Feed efficiency) ([3]; 1 ppm in diet): 2.350 | FE, Percent (±) Control ([3]; 1 ppm in diet): +1.4% | Carcass Yield ([3]; 2 ppm in diet): 69.30% of live weight | Carcass Yield, Percent (±) Control ([3]; 2 ppm in diet): +0.8% | Feed Consumed ([3]; 2 ppm in diet): 2.578 kg | Feed Consumed, Percent (±) Control ([3]; 2 ppm in diet): +0.4% | Gain, Percent (±) Control ([3]; 2 ppm in diet): +3.3% | Gain ([3]; 2 ppm in diet): 1.114 kg | FE (Feed efficiency) ([3]; 2 ppm in diet): 2.315 | FE, Percent (±) Control ([3]; 2 ppm in diet): +3.0% | AD Feed Consumed (Average daily feed consumed) ([4]; 5 ppm in diet): 1.43 kg/day | AD Feed Consumed, Percent (±) Control ([4]; 5 ppm in diet): +2.9% | ADG, Percent (±) Control ([4]; 5 ppm in diet): +11.3% | Carcass Yield ([4]; 5 ppm in diet): 51.80% of live weight | Carcass Yield, Percent (±) Control ([4]; 5 ppm in diet): +1.8% | FE (Feed efficiency) ([4]; 5 ppm in diet): 6.36 | FE, Percent (±) Control ([4]; 5 ppm in diet): +7.0% | Muscle Cross-Sectional Area, Percent (±) Control ([4]; 5 ppm in diet): +6.8% | Subcutaneous Fat Depth Over Loin, Percent (±) Control ([4]; 5 ppm in diet): +23.8% | ADG (Average daily gain) ([4]; 5 ppm in diet): 226 g | Subcutaneous Fat Depth Over Loin ([4]; 5 ppm in diet): 3.2 cm | Muscle Cross-Sectional Area ([4]; 5 ppm in diet): 17.69 cm^2 | AD Feed Consumed (Average daily feed consumed) ([4]; 10 ppm in diet): 1.50 kg/day | AD Feed Consumed, Percent (±) Control ([4]; 10 ppm in diet): +7.9% | ADG, Percent (±) Control ([4]; 10 ppm in diet): +24.6% | Carcass Yield ([4]; 10 ppm in diet): 51.52% of live weight | Carcass Yield, Percent (±) Control ([4]; 10 ppm in diet): +1.3% | FE (Feed efficiency) ([4]; 10 ppm in diet): 5.91 | FE, Percent (±) Control ([4]; 10 ppm in diet): +13.6% | Muscle Cross-Sectional Area, Percent (±) Control ([4]; 10 ppm in diet): +11.4% | Subcutaneous Fat Depth Over Loin, Percent (±) Control ([4]; 10 ppm in diet): +35.7% | ADG (Average daily gain) ([4]; 10 ppm in diet): 253 g | Subcutaneous Fat Depth Over Loin ([4]; 10 ppm in diet): 2.7 cm | Muscle Cross-Sectional Area ([4]; 10 ppm in diet): 18.44 cm^2 | AD Feed Consumed (Average daily feed consumed) ([4]; 20 ppm in diet): 1.39 kg/day | AD Feed Consumed, Percent (±) Control ([4]; 20 ppm in diet): +0.0% | ADG, Percent (±) Control ([4]; 20 ppm in diet): +15.3% | Carcass Yield ([4]; 20 ppm in diet): 54.15% of live weight | Carcass Yield, Percent (±) Control ([4]; 20 ppm in diet): +6.5% | FE (Feed efficiency) ([4]; 20 ppm in diet): 5.92 | FE, Percent (±) Control ([4]; 20 ppm in diet): +13.5% | Muscle Cross-Sectional Area, Percent (±) Control ([4]; 20 ppm in diet): +24.2% | Subcutaneous Fat Depth Over Loin, Percent (±) Control ([4]; 20 ppm in diet): +57.1% | ADG (Average daily gain) ([4]; 20 ppm in diet): 234 g | Subcutaneous Fat Depth Over Loin ([4]; 20 ppm in diet): 1.8 cm | Muscle Cross-Sectional Area ([4]; 20 ppm in diet): 20.56 cm^2

CC(C)(C)NCC(O)c1cc(Cl)c(N)c(Cl)c1 (stereo not shown) [Clenbuterol]
bronchodilator activity [5]: very effective bronchodilator | heart stimulant activity [5]: potent heart

CC(C)N(CC(O)c1cc(F)cc(C#N)c1)C(C)C (stereo not shown) [drawing 20]
IC50 [1]: 2.95 µM

CC(C)NCC(O)c1cc(F)cc(C#N)c1 (stereo not shown) [drawing 22]
IC50 [1]: 12.3 µM

CCCC(C)NCC(O)c1cc(F)cc(C#N)c1 (stereo not shown) [drawing 19]
IC50 [1]: 2.2 µM

CCNCC(O)c1cc(F)cc(C#N)c1 (stereo not shown) [drawing 21]
IC50 [1]: 3.04 µM
